Experiment [1] addresses Transcription initiation factor TFIID subunit 6 (Homo sapiens) (UniProt P49848). The experiment in a line: Binding affinity to Taf6 (unknown origin) at 200 uM preincubated for 2 hrs followed by pronase addition and measured after 30 mins by coomassie blue staining based SDS-PAGE gel analysis.
The target in experiment [2] is Rho-related GTP-binding protein RhoB (Homo sapiens) (UniProt P62745). Kind of experiment: Binding affinity to RHOB (unknown origin) at 200 uM preincubated for 2 hrs followed by pronase addition and measured after 30 mins by coomassie blue staining based SDS-PAGE gel analysis.
Sequence of Rho-related GTP-binding protein RhoB (Homo sapiens) (P62745 whole entry): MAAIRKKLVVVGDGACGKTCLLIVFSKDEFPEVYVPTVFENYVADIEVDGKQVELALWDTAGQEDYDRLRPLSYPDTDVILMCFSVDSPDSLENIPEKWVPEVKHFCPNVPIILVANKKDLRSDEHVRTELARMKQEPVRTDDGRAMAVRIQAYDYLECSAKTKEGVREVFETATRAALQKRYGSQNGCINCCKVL
In experiment [3] the target is Heat shock 70 kDa protein 4L (Homo sapiens) (UniProt O95757). Kind of experiment: Binding affinity to Hspa4l (unknown origin) assessed as fold change in protein upregulation at 200 uM preincubated for 2 hrs followed by pronase addition and measured after 30 mins by coomassie blue staining based SDS-PAGE gel analysis.
Sequence of Heat shock 70 kDa protein 4L (Homo sapiens) (O95757 whole entry): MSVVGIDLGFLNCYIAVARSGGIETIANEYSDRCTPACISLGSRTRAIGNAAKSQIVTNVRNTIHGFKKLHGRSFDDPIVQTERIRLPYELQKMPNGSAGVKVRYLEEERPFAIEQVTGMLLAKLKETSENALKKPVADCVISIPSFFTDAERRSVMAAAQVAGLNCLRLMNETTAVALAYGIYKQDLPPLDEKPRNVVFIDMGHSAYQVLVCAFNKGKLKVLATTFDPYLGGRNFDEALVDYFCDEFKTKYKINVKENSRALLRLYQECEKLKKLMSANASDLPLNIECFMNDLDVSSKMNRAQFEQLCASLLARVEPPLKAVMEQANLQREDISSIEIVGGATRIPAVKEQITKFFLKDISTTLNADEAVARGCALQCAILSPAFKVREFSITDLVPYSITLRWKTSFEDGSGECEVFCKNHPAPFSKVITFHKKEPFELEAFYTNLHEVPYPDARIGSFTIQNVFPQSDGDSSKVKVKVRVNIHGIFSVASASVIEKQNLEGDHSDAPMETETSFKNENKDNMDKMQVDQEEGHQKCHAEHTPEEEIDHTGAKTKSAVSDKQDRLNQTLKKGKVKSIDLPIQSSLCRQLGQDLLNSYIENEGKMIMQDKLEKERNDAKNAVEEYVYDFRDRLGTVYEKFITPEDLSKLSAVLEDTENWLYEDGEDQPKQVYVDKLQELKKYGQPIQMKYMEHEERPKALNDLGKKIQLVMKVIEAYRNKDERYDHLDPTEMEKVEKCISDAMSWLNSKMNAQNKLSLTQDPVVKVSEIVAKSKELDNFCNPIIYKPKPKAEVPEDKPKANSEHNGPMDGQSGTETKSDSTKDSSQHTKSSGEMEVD
In experiment [4] the target is Protein O-mannosyl-transferase TMTC3 (Homo sapiens) (UniProt Q6ZXV5). The experiment in a line: Binding affinity to Tmtc3 (unknown origin) assessed as fold change in protein upregulation at 200 uM preincubated for 2 hrs followed by pronase addition and measured after 30 mins by coomassie blue staining based SDS-PAGE gel analysis.
Sequence of Protein O-mannosyl-transferase TMTC3 (Homo sapiens) (Q6ZXV5 whole entry): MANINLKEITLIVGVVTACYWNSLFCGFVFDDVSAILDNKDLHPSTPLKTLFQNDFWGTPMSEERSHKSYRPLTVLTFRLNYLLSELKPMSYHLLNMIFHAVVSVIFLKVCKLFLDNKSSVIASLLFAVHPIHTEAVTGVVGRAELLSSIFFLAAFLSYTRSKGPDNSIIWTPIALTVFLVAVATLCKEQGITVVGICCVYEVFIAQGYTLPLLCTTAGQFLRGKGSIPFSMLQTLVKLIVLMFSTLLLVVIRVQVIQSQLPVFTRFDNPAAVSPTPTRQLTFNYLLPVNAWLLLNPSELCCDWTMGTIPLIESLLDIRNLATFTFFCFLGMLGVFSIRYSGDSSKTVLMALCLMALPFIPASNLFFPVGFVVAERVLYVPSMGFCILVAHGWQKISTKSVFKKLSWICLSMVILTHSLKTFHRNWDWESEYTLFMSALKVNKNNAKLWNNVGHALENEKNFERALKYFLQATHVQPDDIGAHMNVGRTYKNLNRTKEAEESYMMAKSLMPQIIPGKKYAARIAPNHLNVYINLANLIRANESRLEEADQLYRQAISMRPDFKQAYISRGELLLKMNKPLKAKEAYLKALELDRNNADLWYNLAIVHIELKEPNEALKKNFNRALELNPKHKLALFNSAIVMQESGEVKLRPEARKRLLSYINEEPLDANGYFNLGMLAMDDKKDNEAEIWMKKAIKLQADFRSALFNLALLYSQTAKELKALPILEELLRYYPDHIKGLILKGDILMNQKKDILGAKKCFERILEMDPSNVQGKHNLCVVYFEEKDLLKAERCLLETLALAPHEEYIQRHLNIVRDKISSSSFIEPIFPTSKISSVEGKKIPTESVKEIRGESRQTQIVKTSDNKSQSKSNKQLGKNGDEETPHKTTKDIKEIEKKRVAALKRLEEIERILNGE

Structures are written as SMILES. The source made the active and inactive calls. The rule behind the calls is not given here.

Sequence of Transcription initiation factor TFIID subunit 6 (Homo sapiens) (P49848 whole entry): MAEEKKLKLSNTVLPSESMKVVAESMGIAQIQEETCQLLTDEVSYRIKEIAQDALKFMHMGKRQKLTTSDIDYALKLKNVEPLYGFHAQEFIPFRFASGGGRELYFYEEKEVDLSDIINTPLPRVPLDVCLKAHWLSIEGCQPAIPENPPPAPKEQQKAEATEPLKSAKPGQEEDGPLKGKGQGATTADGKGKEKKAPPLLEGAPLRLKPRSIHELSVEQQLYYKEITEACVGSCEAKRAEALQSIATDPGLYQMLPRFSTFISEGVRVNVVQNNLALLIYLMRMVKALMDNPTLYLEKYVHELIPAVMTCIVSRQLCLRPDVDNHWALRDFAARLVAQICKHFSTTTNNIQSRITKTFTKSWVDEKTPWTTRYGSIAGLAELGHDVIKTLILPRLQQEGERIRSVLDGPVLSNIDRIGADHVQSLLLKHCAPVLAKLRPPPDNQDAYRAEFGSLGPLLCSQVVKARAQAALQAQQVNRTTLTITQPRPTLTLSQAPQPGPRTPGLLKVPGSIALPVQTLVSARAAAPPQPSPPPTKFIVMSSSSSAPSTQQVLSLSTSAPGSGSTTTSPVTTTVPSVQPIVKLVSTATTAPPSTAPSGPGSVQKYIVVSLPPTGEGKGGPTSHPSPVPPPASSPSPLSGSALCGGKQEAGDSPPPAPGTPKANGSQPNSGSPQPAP

As for `COc1c(O)nc2c(O)cccc2c1OC`, the outcome in experiment [1] and in experiment [2] was Active. Also, the figures for the fold change (FC) in experiment [3] and in experiment [4] were 1.28 and 1.22, respectively.

The record behind these values is ChEMBL document CHEMBL5335856, “Structurally Diverse Alkaloids with Anti-Renal-Fibrosis Activity from the Centipede Scolopendra subspinipes mutilans” (J Nat Prod, 2024).
